Usually AUC(0-inf) stands for total exposure, with the tail of the curve extrapolated. High values mean more exposure, low ones less exposure. A word on the Cmax: it is the maximum level reached in the sampled fluid or tissue. For orientation: MRT last means a mean duration of stay, worked out from the concentration-time curve. The Tmax is the time at which the peak concentration occurs. What is called IC50 is the concentration that gives 50% inhibition. A higher IC50 goes with lower potency.

The text below walks through data of US20250257064A1, “TRIFLUOROMETHYL-SUBSTITUTED SULFONAMIDE AS BCL-2-SELECTIVE INHIBITOR” (Chia Tai Tianqing Pharmaceutical Group Co., Ltd., priority 2018, published 2025).

Data set [1] can be described thus: In vitro stability in rat liver microsomes. In kind it is in vitro ADME. To be noted: 1 μM. Here is the method:
Experimental Example 3: In Vitro Stability in Liver Microsome
300 μL of the final incubation system contains 30 μL of liver microsomes (protein concentration: 5 mg/mL), 30 μL of NADPH+MgCl2, 3 μL of the test compound (in acetonitrile), and 237 μL of PBS buffer (pH 7.4), wherein the proportion of the organic solvent (acetonitrile) is 1% (volume ratio). Two duplicate samples were prepared for each specie (mouse, rat and human), and each sample was 0.3 mL. Each tube which was added with 270 μL of a mixed solution of substrate and enzyme, and NADPH, after being pre-incubated at 37° C. for 5 min, was added with 30 μL of NADPH+MgCl2 and mixed. Then 50 μL of the mixture was taken at 0 min, 15 min, 30 min and 60 min, and added with 300 μL of glacial acetonitrile containing an internal standard to terminate the reaction.
50 μL of the incubated sample was added with 300 μL of glacial acetonitrile containing an internal standard (20 ng/mL diazepam) for precipitation, vortexed for 5 min, and centrifuged (13,000 rpm, 20° C.) for 10 min. 70 μL of supernatant was taken and diluted with 70 μL of ultrapure water. After being mixed well, 1 μL of the resulting sample was injected for analysis.
Background: Liver microsomes are a subcellular fraction often used to study metabolism.

The nature of data set [2]: Pharmacokinetics in beagle dogs. In kind it is in vivo. As to conditions: male, dog, plasma, po, intragastric 2.5 mg/kg. On the procedure:
4.2 Pharmacokinetics in Beagle Dogs
3 male beagle dogs weighing 9-12 kg were intragastrically administered with the test compounds at a dosage of 2.5 mg/kg after adaptive feeding for a period of time.
The animals to be tested (male beagle dogs) were fasted for 12 h before administration and fed 4 h after administration, and water was freely drunk before, after and during the experiment.
After intragastric administration, about 0.5 mL of blood was collected from forelimb vein at 0.25 h (15 min), 0.5 h (30 min), 1 h, 1.5 h, 2 h, 4 h, 6 h, 8 h, 10 h, 24 h, 30 h, 48 h and 72 h, and placed in an EDTA-K2 anticoagulation tube. Blood samples were transferred to a centrifuge within 30 min, and centrifuged at 4000 rpm for 10 min at 4° C. to separate the plasma. All plasma samples were collected and immediately stored at −20° C. for testing.
50 μL of the plasma sample to be tested was added with 300 μL of acetonitrile solution containing an internal standard (20 ng/mL diazepam), shaken and mixed well for 5 min, and centrifuged at 13,000 rpm for 10 min. 75 μL of supernatant was taken and diluted with 75 μL of ultrapure water. After being mixed well, 1 μL of the resulting sample was taken for LC/MS/MS determination, and a chromatogram was recorded.
Oral exposure of the compounds disclosed herein was evaluated by in vivo pharmacokinetic experiments in beagle dogs.

For a further data set, the target named is T1, BCL-2/BAK (Homo sapiens, UniProt P10415).
T1 construct: purchased Cisbio
T1 sequence (P10415 whole entry, species assumed): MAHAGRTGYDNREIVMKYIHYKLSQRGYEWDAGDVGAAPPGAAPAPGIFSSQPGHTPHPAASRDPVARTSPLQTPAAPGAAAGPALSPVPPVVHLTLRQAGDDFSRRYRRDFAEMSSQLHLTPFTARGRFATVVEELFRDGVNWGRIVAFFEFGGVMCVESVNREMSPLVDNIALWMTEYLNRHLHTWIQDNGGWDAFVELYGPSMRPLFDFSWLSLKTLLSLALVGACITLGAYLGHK
As to the kind of experiment: Screening on inhibitory activity for BCL-2/BAK binding (Cisbio HTRF kit). The procedure, abridged: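 HTRF competition assay: Tag1-BCL-2 and Tag2-BAK working dilutions were 5 nM and 120 nM. Compound (200–0.0488 nM final, 4-fold, 7 points, duplicates) was incubated with the proteins for 15 min at 25 °C, then with Eu-cryptate/XL665 antibodies for ≥2 h at 25 °C. IC50 was derived from a four-parameter fit.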

Data set [3] concerns human B-cell leukemia RS4;11 subcutaneous xenograft. As to the kind of experiment: Pharmacodynamics in human B-cell leukemia RS4;11 subcutaneous xenograft model. To be noted: Day 17 after the end of administration. In kind it is in vivo, NOD/SCID mice. The source says: Experimental Example 5: Pharmacodynamics of Compounds in Human B-Cell Leukemia RS4; 11 Subcutaneous Xenograft Model
NOD/SCID mice, female, 9-10 weeks old (ages upon tumor cell grafting), body weight of 16.3-22.0 g, purchased from Beijing AniKeeper Biotech Co., Ltd.; production license number: SCXK (Jing) 2017-0006, and animal certification number: 11402400013155. Breeding environment: SPF grade. Mice were grafted subcutaneously on the right anterior dorsal side with 1×10^7 RS4;11 cells. The day of grafting was defined as day 0. When the mean tumor volume was 240 mm^3, the mice were randomly grouped according to the tumor size. The administration was performed as per Table 5 below.
Clinical symptoms observed during the experiment were recorded in the raw data. The calculation formula for tumor volume: Tumor volume (mm^3)=½×(a×b^2) (where a represents long diameter and b represents short diameter). The data were collected using StudyDirector™ software (version No. 3.1.399.19, supplier: Studylog System, Inc., S.San Francisco, CA, USA) in the experiment, including measurements of the long and short diameters of the tumor and weighing results of the animals. The raw data obtained from a balance and a vernier caliper were directly imported into the software, and any change in the data was recorded. Relative tumor proliferation rate (T/C %) refers to the percentage of the relative tumor volume or tumor weight of the treatment and control groups at a certain time point. The calculation formula is as follows:
T/C %=TRTV/CRTV×100% (TRTV: mean RTV for treatment group; CRTV: mean RTV for vehicle control group; RTV=Vt/V0, where V0 is the tumor volume of the animal upon grouping, and Vt is the tumor volume of the animal after treatment).
(T and C are the relative tumor volume (RTV) or tumor weight (TW) at a particular time point for the treatment and control groups, respectively).
All experimental results were expressed as mean tumor volume±SEM (standard error of mean). The relative tumor volume of the treatment group was compared with that of the control group for any significant difference by the independent sample T test. All data were analyzed using SPSS 18.0. p<0.05 was defined as a significant difference.
Background: In xenograft studies the graft and the host belong to different species.

Consider `CC1(C)CCC(CN2CCN(c3ccc(C(=O)NS(=O)(=O)c4ccc(NC[C@H]5COCCO5)c([N+](=O)[O-])c4)c(Oc4cnc5[nH]ccc5c4)c3)CC2)=C(c2ccc(C(F)(F)F)cc2Cl)C1` [Compound 8-1], for which the “Rat Residual content after 60 min (%)” value in data set [1] stood at 90.9%. For the same compound, in data set [2], the AUC(0-inf) worked out at 27700 ± 14200 ng·h/mL, the Cmax was 1430 ± 769 ng/mL, the MRT last was 17.2 ± 1.62 h and the Tmax was 3.33 ± 1.16 h. Besides, the AUC(0-t) in data set [2] (read-out: AUC0-72 h) was determined as 26300 ± 13600 ng·h/mL. Further, in data set [2] (read-out: T½ (converted)), the half-life is 19.5 ± 1.64 h. The compound further yielded a half-inhibitory concentration (IC50) on BCL-2/BAK of 2.8 nM. Besides, in data set [3] (25 mg/kg p.o. one dose), the “T/C (%)” value is listed as 29.8%, the “TGI (%)” value is listed as 70.2% and the “Tumor volume (x ± S)” value came out at 600.39 ± 32.88 mm^3.
For the compound `CC1(C)CCC(CN2CCN(c3ccc(C(=O)NS(=O)(=O)c4ccc(NCC5CCOCC5)c([N+](=O)[O-])c4)c(Oc4cnc5[nH]ccc5c4)c3)CC2)=C(c2ccc(C(F)(F)F)cc2Cl)C1` [Compound 1-1, 4-(4-{[2-(2-chloro-4-trifluoromethylphenyl)-4,4-dimethylcyclohex-1-enyl]methyl}-piperazin-1-yl)-N-({3-nitro-4-[(tetrahydro-2H-pyran-4-ylmethyl)amino]phenyl}sulfonyl)-2-(1H-pyrrolo[2,3-b]pyridin-5-yloxy)-benzamide], the “Rat Residual content after 60 min (%)” value in data set [1] stood at 88.4%. The compound also had an IC50 at BCL-2/BAK of 2.7 nM. Further, in data set [3] (25 mg/kg p.o. one dose), the “Relative tumor volume (x ± S)” value is 4.39 ± 0.83, the “T/C (%)” value came out at 51.5%, the “TGI (%)” value came out at 48.5% and the “Tumor volume (x ± S)” value turned out to be 1024.97 ± 160.59 mm^3. For the same compound, in data set [3] (50 mg/kg p.o. one dose), the “Relative tumor volume (x ± S)” value turned out to be 1.92 ± 0.36, the “T/C (%)” value came out at 22.5%, the “TGI (%)” value worked out at 77.5% and the “Tumor volume (x ± S)” value amounted to 465.78 ± 95.68 mm^3.
